The target of one assay is human PRMT8 (Homo sapiens, UniProt Q9NR22). Briefly: PRMT8 Biochemical Assay. Particulars: peptide substrate, 3H-SAM Flashplate assay; for IC50: PRMT8 IC50 (uM).
The next assay addresses T1, human PRMT1 (Homo sapiens, UniProt Q99873).
T1 construct: GST-tagged PRMT1; made in house; host or cells: High Five insect cells (baculovirus, pFastBac1)
Kind of assay: PRMT1 Biochemical Assay. The following applies: peptide substrate, 3H-SAM Flashplate assay; read-out: PRMT1 IC50. The source says: S-adenosylmethionine (SAM), S-adenosylhomocysteine (SAH), bicine, Tween20, dimethylsulfoxide (DMSO), bovine skin gelatin (BSG), and Tris(2-carboxyethyl)phosphine hydrochloride solution (TCEP) were purchased from Sigma-Aldrich at the highest level of purity possible. ^3H-SAM was purchase from American Radiolabeled Chemicals with a specific activity of 80 Ci/mmol. 384-well streptavidin Flashplates were purchased from PerkinElmer.
Recombinant baculovirus were generated according to Bac-to-Bac kit instructions (Life Technologies). […] Infections were carried out at 27° C. for 48 hours, harvested by centrifugation, and stored at −80° C. for purification.
GST-tagged PRMT1 was eluted with 50 mM Tris, 2 mM glutathione, pH 7.8, dialysed in buffer A and concentrated to 1 mg/mL.
General Procedure for PRMT1 Enzyme Assays on Peptide Substrates.
(§1) The assays were all performed in a buffer consisting of 20 mM Bicine (pH=7.6), 1 mM TCEP, 0.005% BSG, and 0.002% Tween 20, prepared on the day of use. […] DMSO (1 ul) was added to Columns 11, 12, 23, 24, rows A-H for the maximum signal control and 1 ul of SAH, a known product and inhibitor of PRMT1, was added to columns 11, 12, 23, 24, rows I-P for the minimum signal control. A cocktail (40 ul) containing the PRMT1 enzyme was added by Multidrop Combi (Thermo-Fisher). The compounds were allowed to incubate with PRMT1 for 30 min at room temperature, then a cocktail (10 ul) containing SAM and peptide was added to initiate the reaction (final volume=51 ul). […] The assays were stopped by the addition of non-radiolabeled SAM (10 ul) to a final concentration of 300 uM, which dilutes the ^3H-SAM to a level where its incorporation into the peptide substrate is no longer detectable. 50 ul of the reaction in the 384-well polypropylene plate was then transferred to a 384-well Flashplate and the biotinylated peptides were allowed to bind to the streptavidin surface for at least 1 hour before being washed once with 0.1% Tween20 in a Biotek ELx405 plate washer. The plates were then read in a PerkinElmer TopCount plate reader to measure the quantity of ^3H-labeled peptide bound to the Flashplate surface, measured as disintegrations per minute (dpm) or alternatively, referred to as counts per minute (cpm).
(§2) Where dpm=disintegrations per minute, cmpd=signal in assay well, and min and max are the respective minimum and maximum signal controls.
(§3) Where top and bottom are the normally allowed to float, but may be fixed at 100 or 0 respectively in a 3-parameter fit. The Hill Coefficient normally allowed to float but may also be fixed at 1 in a 3-parameter fit. Y is the % inhibition and X is the compound concentration.

The next assay has as its target T2, human PRMT6 (Homo sapiens, UniProt Q96LA8).
T2 construct: Flag-PRMT6-His; made in house; host or cells: HEK 293F cells (BacMam baculovirus, pFastBacMam)
Briefly: PRMT6 Biochemical Assay. The following applies: for pIC50: read-out: PRMT6 IC50.
From the text: S-adenosylmethionine (SAM), S-adenosylhomocysteine (SAH), bicine, Tween20, dimethylsulfoxide (DMSO), bovine skin gelatin (BSG), sodium butyrate and Tris(2-carboxyethyl)phosphine hydrochloride solution (TCEP) were purchased from Sigma-Aldrich at the highest level of purity possible. ^3H-SAM was purchase from American Radiolabeled Chemicals with a specific activity of 80 Ci/mmol. 384-well streptavidin Flashplates were purchased from PerkinElmer.
Peptide representative of human histone H4 residues 36-50 was synthesized with an N-terminal linker-affinity tag motif and a C-terminal amide cap by 21st Century Biochemicals.
The amplified gene was subcloned into pFastBacMam (Viva Biotech).
Recombinant baculovirus were generated according to Bac-to-Bac kit instructions (Life Technologies). […] Infections were carried out at 37° C. for 48 hours, harvested by centrifugation, and stored at −80° C. for purification.
Column was washed with 20 mM imidazole in the same buffer and Flag-PRMT6-His was eluted with 150 mM imidazole. Pooled fractions were dialysed against buffer Ni-A and further purified by anti-flag M2 affinity chromatography. Flag-PRMT6-His was eluted with 200 ug/ml FLAG peptide in the same buffer. Pooled fractions were dialysed in 20 mM Tris, 150 mM NaCl, 10% glycerol and 5 mM β-mercaptoethanol, pH 7.8.
General Procedure for PRMT6 Enzyme Assays on Peptide Substrates.
as §1, with “PRMT6,” for “PRMT1,”, “PRMT6” for “PRMT1”, “400” for “300”
as §2, §3

The subject of assay [1] is mono-methyl arginine in RKO cells. Briefly: RKO Methylation Assay, In Cell Western (ICW). The following applies: 72 hours. The assay is classed as cell-based. The source says: RKO adherent cells were purchased from ATCC (American Type Culture Collection), Manassas, Va., USA. DMEM/Glutamax medium, penicillin-streptomycin, heat inactivated fetal bovine serum, 0.05% trypsin and D-PBS were purchased from Life Technologies, Grand Island, N.Y., USA. Odyssey blocking buffer, 800CW goat anti-rabbit IgG (H+L) antibody, and Licor Odyssey infrared scanner were purchased from Licor Biosciences, Lincoln, Nebr., USA. Mono-methyl arginine antibody was purchased from Cell Signaling Technology, Danvers, Mass., USA. Methanol was purchased from VWR, Franklin, Mass., USA. 10% Tween 20 was purchased from KPL, Inc., Gaithersburg, Md., USA. DRAQ5 was purchased from Biostatus Limited, Leicestershire, UK.
RKO adherent cells were maintained in growth medium (DMEM/Glutamax medium supplemented with 10% v/v heat inactivated fetal bovine serum and 100 units/mL penicillin-streptomycin) and cultured at 37° C. under 5% CO2.
Cell treatment, In Cell Western (ICW) for detection of mono-methyl arginine and DNA content.
Compound (100 nL) from a 96-well source plate was added directly to 384 well cell plate. Plates were incubated at 37° C., 5% CO2 for 72 hours. After three days of incubation, plates were brought to room temperature outside of the incubator for ten minutes and blotted on paper towels to remove cell media. 50 μL of ice cold 100% methanol was added directly to each well and incubated for 30 min at room temperature. After 30 min, plates were transferred to a Biotek EL406 plate washer and washed 2 times with 100 μL per well of wash buffer (1×PBS). Next 60 μL per well of Odyssey blocking buffer (Odyssey Buffer with 0.1% Tween 20 (v/v)) were added to each plate and incubated 1 hour at room temperature. Blocking buffer was removed and 20 μL per well of primary antibody was added (mono-methyl arginine diluted 1:200 in Odyssey buffer with 0.1% Tween 20 (v/v)) and plates were incubated overnight (16 hours) at 4° C. Plates were washed 5 times with 100 μL per well of wash buffer. […] The plates were washed 5 times with 100 μL per well wash buffer then 2 times with 100 μL per well of water. Plates were allowed to dry at room temperature then imaged on the Licor Odyssey machine which measures integrated intensity at 700 nm and 800 nm wavelengths. Both 700 and 800 channels were scanned.
First, the ratio for each well was determined by:
Each plate included fourteen control wells of DMSO only treatment (minimum activation) as well as fourteen control wells for maximum activation treated with 20 μM of a reference compound. The average of the ratio values for each control type was calculated and used to determine the percent activation for each test well in the plate. Reference compound was serially diluted three-fold in DMSO for a total of nine test concentrations, beginning at 20 μM. Percent activation was determined and EC30 curves were generated using triplicate wells per concentration of compound.

The mark [2] stands for this setting: peptide substrate, 3H-SAM Flashplate assay.

pIC50: −log10 of the molar value. Read-outs that look alike come from different tables or passages of the source.

In general, IC50 refers to the concentration that gives 50% inhibition. Lower therefore signals greater potency in that assay. The term pIC50 denotes −log10 of the IC50, conventionally taken in molar units.

T1 sequence (Q99873 with tags, fused parts or gaps): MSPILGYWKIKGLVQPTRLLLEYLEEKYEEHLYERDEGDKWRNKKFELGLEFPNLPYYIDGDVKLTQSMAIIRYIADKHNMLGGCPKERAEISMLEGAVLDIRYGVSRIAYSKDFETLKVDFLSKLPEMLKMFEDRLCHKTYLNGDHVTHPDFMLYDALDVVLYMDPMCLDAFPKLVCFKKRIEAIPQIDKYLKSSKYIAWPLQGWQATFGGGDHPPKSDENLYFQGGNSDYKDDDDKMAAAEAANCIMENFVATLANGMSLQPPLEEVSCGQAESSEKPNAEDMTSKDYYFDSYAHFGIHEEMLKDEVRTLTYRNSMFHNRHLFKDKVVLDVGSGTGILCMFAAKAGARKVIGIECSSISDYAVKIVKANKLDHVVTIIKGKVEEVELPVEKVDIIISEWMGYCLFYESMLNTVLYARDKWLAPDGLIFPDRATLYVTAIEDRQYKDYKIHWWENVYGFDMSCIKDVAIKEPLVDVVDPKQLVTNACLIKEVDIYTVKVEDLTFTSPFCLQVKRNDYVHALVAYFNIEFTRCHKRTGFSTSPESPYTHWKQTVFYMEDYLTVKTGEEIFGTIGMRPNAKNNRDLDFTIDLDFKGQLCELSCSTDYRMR
Chain of human PRMT8 (Q9NR22 whole entry): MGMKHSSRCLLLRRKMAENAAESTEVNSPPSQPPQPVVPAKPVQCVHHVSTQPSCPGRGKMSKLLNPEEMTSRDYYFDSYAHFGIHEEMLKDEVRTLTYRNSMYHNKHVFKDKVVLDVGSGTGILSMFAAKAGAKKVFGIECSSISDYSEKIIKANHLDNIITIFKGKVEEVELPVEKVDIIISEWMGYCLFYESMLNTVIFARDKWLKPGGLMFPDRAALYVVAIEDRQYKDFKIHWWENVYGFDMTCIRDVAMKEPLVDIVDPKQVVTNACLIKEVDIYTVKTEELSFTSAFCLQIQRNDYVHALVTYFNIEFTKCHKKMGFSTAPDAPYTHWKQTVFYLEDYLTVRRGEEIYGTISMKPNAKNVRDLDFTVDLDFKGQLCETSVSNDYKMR
T2 sequence (Q96LA8 with tags, fused parts or gaps): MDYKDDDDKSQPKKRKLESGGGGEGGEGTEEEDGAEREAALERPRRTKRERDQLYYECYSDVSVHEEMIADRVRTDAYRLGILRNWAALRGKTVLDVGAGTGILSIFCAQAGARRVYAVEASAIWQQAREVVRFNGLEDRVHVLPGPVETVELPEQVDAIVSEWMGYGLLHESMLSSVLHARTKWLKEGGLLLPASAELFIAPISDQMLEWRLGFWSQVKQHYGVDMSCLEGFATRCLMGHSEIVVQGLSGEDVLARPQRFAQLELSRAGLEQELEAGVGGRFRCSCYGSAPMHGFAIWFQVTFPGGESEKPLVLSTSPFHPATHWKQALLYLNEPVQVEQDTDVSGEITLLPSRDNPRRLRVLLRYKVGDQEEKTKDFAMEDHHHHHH

Regarding `CNCCN(C)Cc1c[nH]nc1-c1cc(Cl)c(OCC(C)C)c(Cl)c1` [Compound 1], the IC50 against human PRMT8 was 0.0173 µM; at human PRMT6 (PRMT6 IC50 (uM)), 0.0104 µM. Further, the negative logarithm of the IC50 (pIC50) at human PRMT1 was 8.45. Moreover, in assay [1], the “ICW EC30” value was 380 nM.
At human PRMT8, `CNCCN(C)Cc1c[nH]nc1-c1cc(Cl)c(OCC2CCC2)c(Cl)c1` [Compound 2] had an IC50 of 0.0218 µM. Also, the results for the pIC50 at human PRMT1 and on human PRMT6 (setting [2]) were 8.44 and 7.92, respectively. The “ICW EC30” value in assay [1] was 304 nM.
`CNCCN(C)Cc1c[nH]nc1-c1cc(F)c(OCC2CC2)c(C(F)(F)F)c1` [Compound 3]: at human PRMT8, the IC50 was determined as 0.0219 µM. The pIC50 on human PRMT1 was 8.40; on human PRMT6 (setting [2]), 7.71. In addition, the “ICW EC30” value in assay [1] is 664 nM.
The matching figures for `CNCCN(C)Cc1c[nH]nc1-c1cc(F)c(OCC2CCC2)c(C(F)(F)F)c1` [Compound 5]: 0.0122 µM, 8.34, 8.16 and 468 nM.
Consider `CNCCN(C)Cc1c[nH]nc1-c1ccc(OCCOc2ccc(Oc3ccccc3)cc2)cc1` [Compound 6], for which half-maximal inhibition against human PRMT8 (IC50) was put at 0.0192 µM. Moreover, the pIC50 is 8.32 at human PRMT1 and 8.46 on human PRMT6 (setting [2]). In addition, the “ICW EC30” value in assay [1] was found to be 328.2 nM.
Taken in the same sequence, the figures for `C=C(C)COc1c(Cl)cc(-c2n[nH]cc2CN(C)CCNC)cc1Cl` [Compound 7] were 0.0124 µM, 8.31, 7.88 and 91.54 nM.
For `CNCCN(C)Cc1c[nH]nc1-c1ccc(OCCOc2cccc(OCCN3CCOCC3)c2)cc1` [Compound 8], on human PRMT8, the midpoint of inhibition, the IC50, lay at 0.00939 µM. Also, the pIC50 is 8.31 on human PRMT1 and 8.35 at human PRMT6 (setting [2]). Further, in assay [1], the “ICW EC30” value amounted to 233.7 nM.
Taken in the same sequence, the figures for `CNCCN(C)Cc1c[nH]nc1-c1ccc(OCCOc2ccc(OCc3ccccc3)cc2)cc1` [Compound 9] were 0.024 µM, 8.29, 8.65 and 329.1 nM.
The matching figures for `CNCCN(C)Cc1c[nH]nc1-c1ccc(N(C)CCCOc2ccc(OC)cc2)cc1` [Compound 10]: 0.0124 µM, 8.28, 8.08 and 176.2 nM.
Take `CNCCN(C)Cc1c[nH]nc1-c1ccc(OCCOc2ccc(C3CCOCC3)cc2)cc1` [Compound 11]: at human PRMT8, the concentration for half-maximal inhibition (IC50) was 0.0133 µM. Also, the pIC50 at human PRMT1 was 8.28; at human PRMT6 (setting [2]), 8.39. Further, the “ICW EC30” value in assay [1] turned out to be 113.8 nM.
The matching figures for `CNCCN(C)Cc1c[nH]nc1-c1ccc(N(C)CCCOc2ccc(OC)cc2)cc1` [Compound 12]: 0.0264 µM, 8.28, 7.84 and 449.8 nM.
For `CNCCN(C)Cc1c[nH]nc1-c1cc(OC(CO)CC(C)C)cc(C(F)(F)F)c1` (stereo not drawn) [Compound 73], the pIC50 was 7.36 at human PRMT8 (read-out: PRMT8 IC50) and 5.72 at human PRMT6. Also, the “ICW EC30” value in assay [1] came out at 2102 nM.
For `CNCCN(C)Cc1ccnn1[C@H]1CC[C@@H](COC)CC1` [Compound 110], the pIC50 at human PRMT1 was 7.44; at human PRMT6 (setting [2]), 6.85. Besides, the “ICW EC30” value in assay [1] worked out at 1204 nM.
`CNCCN(C)Cc1c[nH]nc1-c1ccc(OCCOc2ccnnc2)cc1` [Compound 112]: the negative logarithm of the IC50 (pIC50) is 7.43 on human PRMT1 and 7.56 at human PRMT6 (setting [2]). Besides, the “ICW EC30” value in assay [1] turned out to be 3994 nM.
The matching figures for `CNCCN(C)Cc1c[nH]nc1-c1ccc(N(C)CC2CCOCC2)nc1` [Compound 120]: 7.38, 6.57 and 4389 nM.
The matching figures for `CNCCN(C)Cc1c[nH]nc1-c1ccc(OC2CC(OCC(C)C)C2)cc1` (stereo not drawn) [Compound 131]: 7.31, 7.74 and 14756 nM.
As to `CNCCN(C)Cc1c[nH]nc1-c1ccc(OC2CC(OCCC3CCCCC3)C2)cc1` (stereo not drawn) [Compound 150], in assay [1], the “ICW EC30” value was over 20000 nM.

Source of the values: patent US20190077795A1, “ARGININE […] INHIBITORS AND USES THEREOF” (Epizyme, Inc., priority 2014, published 2019).
